Source: the CombiSolv-Exp solvation set (Vermeire and Green 2021)

Assay: solvent given as SMILES

ClC(Cl)=C(c1ccc(Cl)cc1)c1ccc(Cl)cc1
Conditions	solvation free energy, 298 K [kcal/mol]
in CCCCCCCCC=CCCCCCCCC(=O)OCC(COC(=O)CCCCCCCC=CCCCCCCCC)OC(=O)CCCCCCCC=CCCCCCCCC	-12.8
in CCCCCCCCO	-13.2
in O	-3.78

C1CCNCC1
Conditions	solvation free energy, 298 K [kcal/mol]
in C1CCOC1	-5.22
in C1COCCO1	-4.95
in COC(C)(C)C	-4.87
in O	-5.11

CCCCCCCCOC(=O)c1ccccc1C(=O)OCCCCCCCC
Conditions	solvation free energy, 298 K [kcal/mol]
in O	-6.68

Cc1ccc2ccccc2c1
Conditions	solvation free energy, 298 K [kcal/mol]
in O	-2.18

Cc1ccccc1C(=O)O
Conditions	solvation free energy, 298 K [kcal/mol]
in C1CCOC1	-9.3
in C1COCCO1	-9.26
in CC(C)(C)O	-9.12
in CC(C)CCO	-8.95
in CC(C)CO	-8.82
in CC(C)O	-9.06
in CC(C)OC(C)C	-8.56
in CCC(C)O	-9.01
in CCCC(C)O	-8.98
in CCCCCCCCCCO	-8.7
in CCCCCCCCO	-8.76
in CCCCCCCO	-8.81
in CCCCCCO	-8.86
in CCCCCO	-8.91
in CCCCCOC(C)=O	-8.7
in CCCCO	-8.96
in CCCCOC(C)=O	-8.76
in CCCO	-9.01
in CCO	-9.12
in CCOC(C)=O	-8.91
in CCOCC	-8.95
in COC(C)=O	-8.92
in O	-5.87

C1CCCC1
Conditions	solvation free energy, 298 K [kcal/mol]
in CC#N	-2.52
in CC(C)CCCC(C)CCCC(C)CCCCC(C)CCCC(C)CCCC(C)C	-3.23
in CC(C)O	-2.89
in CCCC#N	-2.86
in CCCCCC	-3.7
in CCCCCCCCCC	-3.46
in CCCCCCCCCCCC	-3.37
in CCCCCCCCCCCCCCCC	-3.31
in CCCCCCCO	-3.1
in CCCO	-2.89
in CCO	-2.78
in CN1CCCC1=O	-2.7
in CN1CCCCC1=O	-2.81
in CN1CCN(C)C1=O	-2.56
in CN(C)C=O	-2.73
in CO	-2.62
in COC(C)(C)C	-3.55
in ClC(Cl)(Cl)Cl	-3.78
in ClC=CCl	-3.78
in N#CCCCCC#N	-2.08
in N#Cc1ccccc1	-3
in NCCO	-1.24
in O	1.2
in O=CN1CCOCC1	-2.22
in O=Cc1ccco1	-2.41
in OC1CCCCC1	-3.02
in OCc1ccccc1	-2.7
in OCc1ccco1	-2.39
in S=C=S	-3.84
in c1ccc2ncccc2c1	-3.21

O=C=O
Conditions	solvation free energy, 298 K [kcal/mol]
in Brc1ccccc1	-0.35
in C1CCC2CCCCC2C1	-0.22
in C1CCCCC1	-0.32
in C1CCOC1	-1.12
in C1COCCO1	-1.16
in C=CCCCC	-0.56
in C=CCCCCCC	-0.45
in C=CCCCCCCCC	-0.35
in CC1COC(=O)O1	-0.75
in CC(C)(C)O	-0.41
in CC(C)=O	-1.1
in CC(C)CO	-0.37
in CC(C)O	-0.42
in CCC(C)=O	-0.98
in CCC(C)O	-0.33
in CCCCCC	-0.48
in CCCCCCC	-0.41
in CCCCCCCC	-0.35
in CCCCCCCCCC	-0.27
in CCCCCCCCCCCCCCCC	-0.12
in CCCCCCCCCCO	-0.13
in CCCCCCCCO	-0.22
in CCCCO	-0.4
in CCCCOCCO	-0.26
in CCCCOCCOCCO	-0.23
in CCCCOCCOCCOCCO	-0.48
in CCCO	-0.48
in CCO	-0.57
in CCOCCOCCO	-0.51
in CCOCCOCCOCC	-0.69
in CCc1ccccc1	-0.21
in CN1CCCC1=O	-0.82
in CN(C)C=O	-0.95
in CN(C)P(=O)(N(C)C)N(C)C	-0.9
in CO	-0.85
in COC(=O)CC#N	-0.67
in COC(C)=O	-1.13
in COCCO	-0.65
in COCCOC	-0.86
in COCCOCCO	-0.7
in COCCOCCOC	-0.84
in COCCOCCOCCO	-0.5
in COCCOCCOCCOC	-0.7
in COCCOCCOCCOCCOC	-0.77
in CS(C)=O	-0.69
in Cc1ccc(C)cc1	-0.45
in Cc1cccc(C)c1	-0.45
in Cc1ccccc1	-0.48
in Cc1ccccc1C	-0.43
in ClC(Cl)(Cl)Cl	-0.61
in ClC(Cl)Cl	-0.61
in ClCCCl	-0.78
in ClCCl	-0.68
in Clc1ccccc1	-0.5
in Nc1ccccc1	-0.44
in O	0.11
in O=C1CCCC1	-0.89
in O=C1CCCCC1	-0.79
in O=CN1CCOCC1	-0.71
in OCCCOCCCO	-0.25
in OCCO	-0.17
in OCCOCCO	-0.28
in OCc1ccccc1	-0.36
in c1ccccc1	-0.58
